A short description of data set [1]: Stability in pH 7.4 buffer solution. It is filed as physicochemical.
Data set [2] in a line: Retention time of the compound by HPLC method. Format: physicochemical.
A short description of data set [3]: Stability in presence of 1 mM reduced glutathione at 100 uM after 24 hrs at 37 degC by HPLC method. It is filed as physicochemical.
A short description of data set [4]: Stability in rat liver S9 fraction at 100 uM after 24 hrs in absence of 1 mM reduced glutathione at 37 degC by HPLC method. It is filed as ADME. To be noted: s9, 24 h.
Data set [5] in a line: Prodrug conversion in rat liver S9 fraction assessed as half life for metformin formation at 100 uM in presence of 1 mM reduced glutathione by HPLC method. It is filed as ADME, subcellular. To be noted: gsh.
The subject of data set [6] is Liver microsome. Put plainly: Prodrug conversion in rat liver microsomes assessed as half life for metformin formation at 100 uM in presence of a NADPH-regenerating system by HPLC method. Format: ADME.
Data set [7] deals with Liver cytosol. In words: Prodrug conversion in rat liver cytosol assessed as half life for metformin formation at 100 uM in presence of a NADPH-regenerating system by HPLC method. Format: ADME, tissue-based.
Data set [8] can be described thus: Prodrug conversion in human liver S9 fraction assessed as half life for metformin formation at 100 uM in presence of 1 mM reduced glutathione by HPLC method. It is filed as ADME, subcellular. To be noted: gsh.
For data set [9], the target named is T1, Glutathione S-transferase A1 (Homo sapiens, UniProt P08263).
T1 sequence (P08263 whole entry): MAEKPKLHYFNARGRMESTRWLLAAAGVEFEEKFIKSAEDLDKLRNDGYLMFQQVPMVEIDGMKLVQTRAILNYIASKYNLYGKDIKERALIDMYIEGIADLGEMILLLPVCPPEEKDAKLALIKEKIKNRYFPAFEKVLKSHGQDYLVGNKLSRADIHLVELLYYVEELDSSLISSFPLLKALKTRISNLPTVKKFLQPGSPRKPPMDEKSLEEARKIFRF
Put plainly: Prodrug conversion assessed as half life for human recombinant GST-A1-mediated metformin formation at 100 uM in presence of 1 mM reduced glutathione by HPLC method. It is filed as ADME. To be noted: gsh.

The target of data set [10] is T2, Glutathione S-transferase Mu 2 (Homo sapiens, UniProt P28161).
T2 sequence (P28161 whole entry): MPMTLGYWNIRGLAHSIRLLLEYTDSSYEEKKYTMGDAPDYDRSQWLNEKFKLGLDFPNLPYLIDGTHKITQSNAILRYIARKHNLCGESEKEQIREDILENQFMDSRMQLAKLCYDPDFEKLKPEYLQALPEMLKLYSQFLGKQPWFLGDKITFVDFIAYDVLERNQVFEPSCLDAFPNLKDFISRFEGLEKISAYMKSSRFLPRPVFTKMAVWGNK
Put plainly: Prodrug conversion assessed as half life for human recombinant GST-M2-mediated metformin formation at 100 uM in presence of 1 mM reduced glutathione by HPLC method. To be noted: gsh. Format: ADME.

Data set [11] concerns the target Glutathione S-transferase P (Homo sapiens, UniProt P09211). Put plainly: Prodrug conversion assessed as half life for human recombinant GST-P1-mediated metformin formation at 100 uM in presence of 1 mM reduced glutathione by HPLC method. Format: ADME. To be noted: gsh.
Data set [12] can be described thus: Prodrug conversion in rat liver S9 fraction assessed as […] GST-mediated metformin formation at 10 to 200 uM in presence of 1 mM reduced glutathione by Michaelis-Menten method. It is filed as ADME, subcellular. The conditions noted are these: s9, 200 µM.
Data set [13] can be described thus: Distribution coefficient, logD of the compound in mixture of 1-octanol and 50 mM phosphate buffer pH 7.4 by HPLC method. Format: physicochemical. To be noted: 1-octanol/50 mM phosphate buffer.
The nature of data set [14]: Aqueous solubility in pure water incubated for 1 hr by HPLC based shake flask method. It is filed as physicochemical.
Data set [15] can be described thus: Stability in pH 1.0 HCl buffer solution measured over 3 weeks by HPLC method. The conditions noted are these: pH 1, 504 h. It is filed as physicochemical.
Data set [16] relates to Intestine. In words: Stability in rat small intestine homogenates by HPLC method. Format: ADME, tissue-based. The conditions noted are these: tissue homogenate.
Data set [17] is described as follows: Stability in rat liver S9 fraction at 100 uM after 24 hrs in presence of 1 mM reduced glutathione at 37 degC by HPLC method. To be noted: s9, 24 h. It is filed as ADME, subcellular.

≈ marks a conversion by molar mass, not a printed value.

Chain of Glutathione S-transferase P (P09211 whole entry): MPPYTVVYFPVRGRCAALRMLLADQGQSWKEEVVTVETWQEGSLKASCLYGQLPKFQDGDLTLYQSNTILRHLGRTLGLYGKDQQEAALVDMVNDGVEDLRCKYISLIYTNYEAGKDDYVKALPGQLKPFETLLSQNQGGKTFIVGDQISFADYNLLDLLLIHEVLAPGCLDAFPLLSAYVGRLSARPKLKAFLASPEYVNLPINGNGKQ

As to `CN(C)C(=N)/N=C(\N)NS(=O)(=O)c1ccc(C(F)(F)F)cc1[N+](=O)[O-]`, the Stability result in data set [1], in data set [3], in data set [4], in [15] and in [16] was “Stable” each time. For the same molecule, the Retention_time in [2] is on record as 3 min. The t1/2 is 3.7668 h in data set [5]; 9.4752 h in data set [6]; 4.6642 h in data set [7]; 6.0382 h in data set [8]; 6.337 h in data set [9]; 6.1045 h in data set [10]. The t1/2 in [11] worked out at 6.8675 h. The Km in [12] was determined as 106 µM. The Vmax in data set [12] came out at 8.86 nmol/mg/min. Moreover, the logD in data set [13] came out at 0.86. In addition, in [14], the thermodynamic solubility at 1 h turned out to be 360 µg/mL (≈ 942 µM).

Turning to `CCC[C@@]1(CCc2ccccc2)CC(O)=C([C@H](CC)c2cccc(NS(=O)(=O)c3ccc(C#N)cn3)c2)C(=O)O1`, in data set [12], the Km came to 143 µM and the Vmax stood at 13.9 nmol/mg/min.

Turning to `CN(C)C(=N)/N=C(\N)NS(=O)(=O)c1ccccc1[N+](=O)[O-]`, the Stability result in [1] and in data set [17] was “Stable” in each case. Moreover, the Retention_time in data set [2] was 3 min.

`CN(C)C(=N)N=C(N)N` [METFORMIN] showed a Retention_time in data set [2] of 15 min.

Turning to `CN(C)C(=N)/N=C(\N)NS(=O)(=O)c1ccc([N+](=O)[O-])cc1`, the Stability result in data set [1] and in data set [17] was “Stable” in each case. Also, in [2], the Retention_time was found to be 3 min.

Values taken from ChEMBL document CHEMBL3351963 (Bioorg Med Chem Lett, 2014).
